Measured values published in paper PMC11997890, “In Vivo and In Vitro Pharmacokinetic Studies of a Dual Topoisomerase I/II Inhibitor” (ACS Pharmacology & Translational Science, 2025).

Experiments:
[1] = In vitro biotransformation of P8-D6 with mouse tissue PNS; assay type: in vitro ADME; conditions: mouse liver PNS, 1 mM P8-D6, 150 min
Protocol: (§1) P8-D6 (1 mM) was incubated with postnuclear supernatant (PNS), microsomes, or S9 reaction mixture of various tissue samples (liver, kidney, lung, spleen, and colon) from different donor species (pigs, mice, rats, and humans) for 150 min (study preparation scheme supplied as Figure S5). The commercial human and rat enzymes were subjected to quality control by the supplier. Three phase I metabolites were identified. […] LC-MS and NMR spectroscopic data for the metabolites are given in Supporting Information. Based on the structural characteristics, the metabolites were named as follows: P8-DO (4), P8-D6 N-oxide (6), and P8-D6 mono (8). All metabolites were synthesized to confirm the postulated structure (chapter Synthesis of Metabolites). The extent of metabolism during in vitro incubation was highly dependent on the species (pig > mouse > rat > human) (Figure ).
(§2) For all phase I metabolism studies (except cell cultures), a 0.3 mL reaction mixture consisting of 1 mM substrate (P8-D6, P8-D6 mono, P8-D6 N-oxide), 1 mM NADPH as a cofactor, 0.67 mg/mL protein from homogenized tissue or subcellular fractions, respectively (except recombinant enzymes, where 0.5 mg/mL was used), and PBS buffer (pH 7.4) was used. All experiments were performed in biological triplicates. […]

[2] = In vitro biotransformation of P8-D6 with rat tissue fractions; assay type: in vitro ADME; conditions: 1 mM P8-D6, 150 min
Protocol: as §1, §2

formation of metabolite from P8-D6 [1]: 3.08%
formation of metabolite from P8-D6 ([2]; rat liver microsomes): 1.91%
formation of metabolite from P8-D6 ([2]; rat lung PNS): 1.37%
SMILES: COc1cc(-c2cc3ccncc3c3nc(OCC[N+](C)(C)[O-])c4cnccc4c23)cc(OC)c1OC [P8-D6 N-oxide]
